For this data set, the system named is CCRIS mutagenicity, Ames/micronucleus/aberration tests. Description: CCRIS mutagenicity studies.
Setting [1] is: Test System: AMES SALMONELLA TYPHIMURIUM, Strain/Indicator: TA100, Metabolic Activation: NONE, Method: STANDARD PLATE.

Structures are written as SMILES. Activity calls are given as the source filed them. No rule for the calls is given here.

`CCCCCCCCCCCC(=O)N(CCO)CCO`: the mutagenic call was “inactive; negative” (End Point: IN VITRO CHROMOSOMAL ABERRATIONS, Test System: CHO-LB CELLS, Metabolic Activation: NONE); “inactive; negative” (End Point: IN VITRO CHROMOSOMAL ABERRATIONS, Test System: CHO-LB CELLS, Metabolic Activation: RAT, LIVER, S-9, AROCLOR 1254); “inactive; negative” (Test System: AMES SALMONELLA TYPHIMURIUM, Strain/Indicator: TA97, Metabolic Activation: HAMSTER, LIVER, S-9, AROCLOR 1254 (10%), Method: PREINCUBATION); “inactive; negative” (Test System: AMES SALMONELLA TYPHIMURIUM, Strain/Indicator: TA97, Metabolic Activation: HAMSTER, LIVER, S-9, AROCLOR 1254 (30%), Method: PREINCUBATION); “inactive; negative” (Test System: AMES SALMONELLA TYPHIMURIUM, Strain/Indicator: TA97, Metabolic Activation: NONE, Method: PREINCUBATION); “inactive; negative” (Test System: AMES SALMONELLA TYPHIMURIUM, Strain/Indicator: TA97, Metabolic Activation: RAT, LIVER, S-9, AROCLOR 1254 (10%), Method: PREINCUBATION). Moreover, the mutagenic call (Test System: AMES SALMONELLA TYPHIMURIUM, Strain/Indicator: TA97, Metabolic Activation: RAT, LIVER, S-9, AROCLOR 1254 (30%), Method: PREINCUBATION) is “inactive; negative”; the mutagenic call (Test System: AMES SALMONELLA TYPHIMURIUM, Strain/Indicator: TA98, Metabolic Activation: HAMSTER, LIVER, S-9, AROCLOR 1254 (10%), Method: PREINCUBATION) was “inactive; negative”; the mutagenic call (Test System: AMES SALMONELLA TYPHIMURIUM, Strain/Indicator: TA98, Metabolic Activation: HAMSTER, LIVER, S-9, AROCLOR 1254 (30%), Method: PREINCUBATION) is “inactive; negative”; the mutagenic call (Test System: AMES SALMONELLA TYPHIMURIUM, Strain/Indicator: TA98, Metabolic Activation: NONE, Method: PREINCUBATION) was “inactive; negative”; the mutagenic call (Test System: AMES SALMONELLA TYPHIMURIUM, Strain/Indicator: TA98, Metabolic Activation: RAT, LIVER, S-9, AROCLOR 1254 (10%), Method: PREINCUBATION) is “inactive; negative”; the mutagenic call (Test System: AMES SALMONELLA TYPHIMURIUM, Strain/Indicator: TA98, Metabolic Activation: RAT, LIVER, S-9, AROCLOR 1254 (30%), Method: PREINCUBATION) is “inactive; negative”. For the same compound, the mutagenic call runs as follows: (Test System: AMES SALMONELLA TYPHIMURIUM, Strain/Indicator: TA100, Metabolic Activation: HAMSTER, LIVER, S-9, AROCLOR 1254 (10%), Method: PREINCUBATION) “inactive; negative”; (Test System: AMES SALMONELLA TYPHIMURIUM, Strain/Indicator: TA100, Metabolic Activation: HAMSTER, LIVER, S-9, AROCLOR 1254 (30%), Method: PREINCUBATION) “inactive; negative”; (Test System: AMES SALMONELLA TYPHIMURIUM, Strain/Indicator: TA100, Metabolic Activation: NONE, Method: PREINCUBATION) “inactive; negative”; (Test System: AMES SALMONELLA TYPHIMURIUM, Strain/Indicator: TA100, Metabolic Activation: RAT, LIVER, S-9, AROCLOR 1254 (10%), Method: PREINCUBATION) “inactive; negative”; (Test System: AMES SALMONELLA TYPHIMURIUM, Strain/Indicator: TA100, Metabolic Activation: RAT, LIVER, S-9, AROCLOR 1254 (30%), Method: PREINCUBATION) “inactive; negative”; (Test System: AMES SALMONELLA TYPHIMURIUM, Strain/Indicator: TA1535, Metabolic Activation: HAMSTER, LIVER, S-9, AROCLOR 1254 (10%), Method: PREINCUBATION) “inactive; negative”. The mutagenic call is, setting by setting: (Test System: AMES SALMONELLA TYPHIMURIUM, Strain/Indicator: TA1535, Metabolic Activation: HAMSTER, LIVER, S-9, AROCLOR 1254 (30%), Method: PREINCUBATION) “inactive; negative”; (Test System: AMES SALMONELLA TYPHIMURIUM, Strain/Indicator: TA1535, Metabolic Activation: NONE, Method: PREINCUBATION) “inactive; negative”; (Test System: AMES SALMONELLA TYPHIMURIUM, Strain/Indicator: TA1535, Metabolic Activation: RAT, LIVER, S-9, AROCLOR 1254 (10%), Method: PREINCUBATION) “inactive; negative”; (Test System: AMES SALMONELLA TYPHIMURIUM, Strain/Indicator: TA1535, Metabolic Activation: RAT, LIVER, S-9, AROCLOR 1254 (30%), Method: PREINCUBATION) “inactive; negative”.

Turning to `CCCCN(N=O)C(=O)N(C)C`, the mutagenic call is “active; positive” (Test System: E. COLI, Strain/Indicator: WP2 UVRA, Metabolic Activation: NONE, Method: PREINCUBATION) and “active; positive” (Test System: E. COLI, Strain/Indicator: WP2 UVRA, Metabolic Activation: RAT, LIVER, S-9, PHENOBARBITAL AND 5,6-BENZOFLAVONE, Method: PREINCUBATION).

`CC(=O)c1c(O)cc(O)c2c1C(=O)c1cc(O)cc(O)c1C2=O`: the mutagenic call by setting is: (Test System: AMES SALMONELLA TYPHIMURIUM, Strain/Indicator: TA98, Metabolic Activation: NONE, Method: STANDARD PLATE) “inactive; negative”; (Test System: AMES SALMONELLA TYPHIMURIUM, Strain/Indicator: TA98, Metabolic Activation: RAT, LIVER, S-9, AROCLOR 1254, Method: STANDARD PLATE) “inactive; negative”; under setting [1], “inactive; negative”; (Test System: AMES SALMONELLA TYPHIMURIUM, Strain/Indicator: TA100, Metabolic Activation: RAT, LIVER, S-9, AROCLOR 1254, Method: STANDARD PLATE) “inactive; negative”; (Test System: AMES SALMONELLA TYPHIMURIUM, Strain/Indicator: TA1537, Metabolic Activation: RAT, LIVER, S-9, AROCLOR 1254, Method: STANDARD PLATE) “inactive; negative”.

Take `COc1cccc2c1C(=N)c1c(O)c3c(c(O)c1C2=O)C[C@@](O)(C(C)=O)C[C@@H]3O[C@H]1C[C@H](N)[C@H](O)[C@H](C)O1`: the mutagenic call (Test System: CHINESE HAMSTER V-79, Strain/Indicator: V-79 (HGPRT)/6-THIOGUANINE, Metabolic Activation: NONE) is “active; positive”.

Turning to `c1cc2c3oc3cc3ccc4c5oc5cc1c4c32`, under setting [1], the mutagenic call was “active; positive”.

Regarding `Cc1ccc2cc3c(ccc4ccccc43)c3c2c1C(=O)C3`, for the setting “Test System: CHINESE HAMSTER V-79, Strain/Indicator: V-79/8-AZAGUANINE, Metabolic Activation: RAT, LIVER, S-9, AROCLOR 1254, Method: STANDARD PLATE”, the mutagenic call was “active; positive”.

Turning to `NNc1nc(-c2ccc([N+](=O)[O-])cc2)cs1`, the mutagenic call (Test System: AMES SALMONELLA TYPHIMURIUM, Strain/Indicator: TA98, Metabolic Activation: RAT, LIVER, S-9, KC500 OR PHENOBARBITAL, Method: LIQUID SUSPENSION) was “active; positive” and the mutagenic call (Test System: AMES SALMONELLA TYPHIMURIUM, Strain/Indicator: TA100, Metabolic Activation: RAT, LIVER, S-9, KC500 OR PHENOBARBITAL, Method: LIQUID SUSPENSION) was “active; positive”.

In the case of `CC(C)(Br)C(=O)NCc1ccccc1`, the mutagenic call (Test System: AMES SALMONELLA TYPHIMURIUM, Strain/Indicator: TA100, Metabolic Activation: MOUSE, LIVER, S-9, AROCLOR 1254, Method: STANDARD PLATE) was “inactive; negative” and the mutagenic call under setting [1] is “inactive; negative”.

As to `FC(F)(Cl)Cl`, the mutagenic call (Test System: AMES SALMONELLA TYPHIMURIUM, Strain/Indicator: TA98, Metabolic Activation: NONE, Method: GAS EXPOSURE) is “inactive; negative”; the mutagenic call (Test System: AMES SALMONELLA TYPHIMURIUM, Strain/Indicator: TA98, Metabolic Activation: RAT LIVER S-9, PHENOBARBITAL AND BETA-NAPHTHOFLAVONE (40%), Method: GAS EXPOSURE) is “inactive; negative”; the mutagenic call (Test System: AMES SALMONELLA TYPHIMURIUM, Strain/Indicator: TA100, Metabolic Activation: NONE, Method: GAS EXPOSURE) was “inactive; negative”; the mutagenic call (Test System: AMES SALMONELLA TYPHIMURIUM, Strain/Indicator: TA100, Metabolic Activation: RAT LIVER S-9, PHENOBARBITAL AND BETA-NAPHTHOFLAVONE (40%), Method: GAS EXPOSURE) is “inactive; negative”; the mutagenic call (Test System: AMES SALMONELLA TYPHIMURIUM, Strain/Indicator: TA1535, Metabolic Activation: NONE, Method: GAS EXPOSURE) is “inactive; negative”; the mutagenic call (Test System: AMES SALMONELLA TYPHIMURIUM, Strain/Indicator: TA1535, Metabolic Activation: RAT LIVER S-9, PHENOBARBITAL AND BETA-NAPHTHOFLAVONE (40%), Method: GAS EXPOSURE) is “inactive; negative”. The mutagenic call (Test System: AMES SALMONELLA TYPHIMURIUM, Strain/Indicator: TA1537, Metabolic Activation: NONE, Method: GAS EXPOSURE) was “inactive; negative”; the mutagenic call (Test System: AMES SALMONELLA TYPHIMURIUM, Strain/Indicator: TA1537, Metabolic Activation: RAT LIVER S-9, PHENOBARBITAL AND BETA-NAPHTHOFLAVONE (40%), Method: GAS EXPOSURE) is “inactive; negative”; the mutagenic call (Test System: E.COLI, Strain/Indicator: WP2UVRA, Metabolic Activation: NONE, Method: GAS EXPOSURE) was “inactive; negative”; the mutagenic call (Test System: E.COLI, Strain/Indicator: WP2UVRA, Metabolic Activation: RAT LIVER S-9, PHENOBARBITAL AND BETA-NAPHTHOFLAVONE (40%), Method: GAS EXPOSURE) was “inactive; negative”.

Source of the values: PubChem BioAssay AID1259407 (Chemical Carcinogenesis Research Information System (CCRIS), 2018).
